Marks after values point to notes of the source that are not given here.
System: reconstructed epidermis (Episkin J13)
Test: Penetration of radiolabelled caffeine through reconstructed human epidermis (barrier function)
Format: cell-based
Conditions: for passage of [14C]-caffeine, percentage of passage relative to an untreated control: 5 days treatment
Description: The efficacy of the barrier function of a skin may be evaluated by measuring the passage through it of a labelled molecule, for instance radiolabelled caffeine.
Skin with an improved barrier function is thus characterized in that it slows down, or even reduces, the passage of the said molecule through its epidermis.
Two batches of reconstructed epidermis (Episkin J13) (batches 1 and 2) are treated for 5 days with the product C-β-D-xylopyranoside-n-propan-2-one, which is applied in the culture medium at a final concentration of 0.2% and 0.04% by weight/volume.
Vitamin C is used as reference molecule at a concentration of 200 μg/ml, in systemic treatment.
After 5 days of culturing, 100 μl and 2 UCi/ml, i.e. 0.04 mM of [^14C]-caffeine (radiolabelled caffeine) and 0.35 mM of cold caffeine (non-radiolabelled caffeine) are applied to the surface, and kinetics of uptake into the medium are determined at eight different times.
The results are expressed as a percentage of passage relative to an untreated control.

O=C1O[C@H]([C@@H](O)CO)C(O)=C1O [Vitamin C, reference compound]
passage of [14C]-caffeine, percentage of passage relative to an untreated control (Batch 1 of reconstructed epidermis, 200 μg/ml, sample taken at 1 h 30): 81% | passage of [14C]-caffeine, percentage of passage relative to an untreated control (Batch 1 of reconstructed epidermis, 200 μg/ml, sample taken at 3 h): 95% | passage of [14C]-caffeine, percentage of passage relative to an untreated control (Batch 1 of reconstructed epidermis, 200 μg/ml, sample taken at 4 h): 81% | passage of [14C]-caffeine, percentage of passage relative to an untreated control (Batch 1 of reconstructed epidermis, 200 μg/ml, sample taken at 5 h): 80 * % | passage of [14C]-caffeine, percentage of passage relative to an untreated control (Batch 1 of reconstructed epidermis, 200 μg/ml, sample taken at 6 h): 86% | passage of [14C]-caffeine, percentage of passage relative to an untreated control (Batch 1 of reconstructed epidermis, 200 μg/ml, sample taken at 7 h): 75 * % | passage of [14C]-caffeine, percentage of passage relative to an untreated control (Batch 1 of reconstructed epidermis, 200 μg/ml, sample taken at 9 h): 85% | passage of [14C]-caffeine, percentage of passage relative to an untreated control (Batch 1 of reconstructed epidermis, 200 μg/ml, sample taken at 24 h): 85% | passage of [14C]-caffeine, percentage of passage relative to an untreated control (Batch 2 of reconstructed epidermis, 200 μg/ml, sample taken at 1 h): 117% | passage of [14C]-caffeine, percentage of passage relative to an untreated control (Batch 2 of reconstructed epidermis, 200 μg/ml, sample taken at 2 h): 77 * % | passage of [14C]-caffeine, percentage of passage relative to an untreated control (Batch 2 of reconstructed epidermis, 200 μg/ml, sample taken at 3 h): 84% | passage of [14C]-caffeine, percentage of passage relative to an untreated control (Batch 2 of reconstructed epidermis, 200 μg/ml, sample taken at 4 h): 86 * % | passage of [14C]-caffeine, percentage of passage relative to an untreated control (Batch 2 of reconstructed epidermis, 200 μg/ml, sample taken at 5 h): 71 * % | passage of [14C]-caffeine, percentage of passage relative to an untreated control (Batch 2 of reconstructed epidermis, 200 μg/ml, sample taken at 6 h): 94% | passage of [14C]-caffeine, percentage of passage relative to an untreated control (Batch 2 of reconstructed epidermis, 200 μg/ml, sample taken at 7 h): 95% | passage of [14C]-caffeine, percentage of passage relative to an untreated control (Batch 2 of reconstructed epidermis, 200 μg/ml, sample taken at 8 h): 96% | passage of [14C]-caffeine, percentage of passage relative to an untreated control (Batch 2 of reconstructed epidermis, 200 μg/ml, sample taken at 9 h): 85% | passage of [14C]-caffeine, percentage of passage relative to an untreated control (Batch 2 of reconstructed epidermis, 200 μg/ml, sample taken at 10 h): 95% | passage of [14C]-caffeine, percentage of passage relative to an untreated control (Batch 2 of reconstructed epidermis, 200 μg/ml, sample taken at 24 h): 99%

CC(=O)C[C@@H]1OC[C@@H](O)[C@H](O)[C@H]1O [C-β-D-xylopyranoside-n-propan-2-one]
passage of [14C]-caffeine, percentage of passage relative to an untreated control (Batch 1 of reconstructed epidermis, 0.04% AM, sample taken at 1 h 30): 52% | passage of [14C]-caffeine, percentage of passage relative to an untreated control (Batch 1 of reconstructed epidermis, 0.04% AM, sample taken at 3 h): 66% | passage of [14C]-caffeine, percentage of passage relative to an untreated control (Batch 1 of reconstructed epidermis, 0.04% AM, sample taken at 4 h): 64 * % | passage of [14C]-caffeine, percentage of passage relative to an untreated control (Batch 1 of reconstructed epidermis, 0.04% AM, sample taken at 5 h): 73 * % | passage of [14C]-caffeine, percentage of passage relative to an untreated control (Batch 1 of reconstructed epidermis, 0.04% AM, sample taken at 6 h): 70 * % | passage of [14C]-caffeine, percentage of passage relative to an untreated control (Batch 1 of reconstructed epidermis, 0.04% AM, sample taken at 7 h): 69 * % | passage of [14C]-caffeine, percentage of passage relative to an untreated control (Batch 1 of reconstructed epidermis, 0.04% AM, sample taken at 9 h): 77 * % | passage of [14C]-caffeine, percentage of passage relative to an untreated control (Batch 1 of reconstructed epidermis, 0.04% AM, sample taken at 24 h): 75 * % | passage of [14C]-caffeine, percentage of passage relative to an untreated control (Batch 1 of reconstructed epidermis, 0.2% AM, sample taken at 1 h 30): 66% | passage of [14C]-caffeine, percentage of passage relative to an untreated control (Batch 1 of reconstructed epidermis, 0.2% AM, sample taken at 3 h): 94% | passage of [14C]-caffeine, percentage of passage relative to an untreated control (Batch 1 of reconstructed epidermis, 0.2% AM, sample taken at 4 h): 59 * % | passage of [14C]-caffeine, percentage of passage relative to an untreated control (Batch 1 of reconstructed epidermis, 0.2% AM, sample taken at 5 h): 63 * % | passage of [14C]-caffeine, percentage of passage relative to an untreated control (Batch 1 of reconstructed epidermis, 0.2% AM, sample taken at 6 h): 63 * % | passage of [14C]-caffeine, percentage of passage relative to an untreated control (Batch 1 of reconstructed epidermis, 0.2% AM, sample taken at 7 h): 66 * % | passage of [14C]-caffeine, percentage of passage relative to an untreated control (Batch 1 of reconstructed epidermis, 0.2% AM, sample taken at 9 h): 79 * % | passage of [14C]-caffeine, percentage of passage relative to an untreated control (Batch 1 of reconstructed epidermis, 0.2% AM, sample taken at 24 h): 70 * % | passage of [14C]-caffeine, percentage of passage relative to an untreated control (Batch 2 of reconstructed epidermis, 0.04% AM, sample taken at 1 h): 143% | passage of [14C]-caffeine, percentage of passage relative to an untreated control (Batch 2 of reconstructed epidermis, 0.04% AM, sample taken at 2 h): 65 * % | passage of [14C]-caffeine, percentage of passage relative to an untreated control (Batch 2 of reconstructed epidermis, 0.04% AM, sample taken at 3 h): 92% | passage of [14C]-caffeine, percentage of passage relative to an untreated control (Batch 2 of reconstructed epidermis, 0.04% AM, sample taken at 4 h): 78 * % | passage of [14C]-caffeine, percentage of passage relative to an untreated control (Batch 2 of reconstructed epidermis, 0.04% AM, sample taken at 5 h): 84% | passage of [14C]-caffeine, percentage of passage relative to an untreated control (Batch 2 of reconstructed epidermis, 0.04% AM, sample taken at 6 h): 80 * % | passage of [14C]-caffeine, percentage of passage relative to an untreated control (Batch 2 of reconstructed epidermis, 0.04% AM, sample taken at 7 h): 91% | passage of [14C]-caffeine, percentage of passage relative to an untreated control (Batch 2 of reconstructed epidermis, 0.04% AM, sample taken at 8 h): 88 * % | passage of [14C]-caffeine, percentage of passage relative to an untreated control (Batch 2 of reconstructed epidermis, 0.04% AM, sample taken at 9 h): 93% | passage of [14C]-caffeine, percentage of passage relative to an untreated control (Batch 2 of reconstructed epidermis, 0.04% AM, sample taken at 10 h): 85 * % | passage of [14C]-caffeine, percentage of passage relative to an untreated control (Batch 2 of reconstructed epidermis, 0.04% AM, sample taken at 24 h): 99% | passage of [14C]-caffeine, percentage of passage relative to an untreated control (Batch 2 of reconstructed epidermis, 0.2% AM, sample taken at 1 h): 162% | passage of [14C]-caffeine, percentage of passage relative to an untreated control (Batch 2 of reconstructed epidermis, 0.2% AM, sample taken at 2 h): 61 * % | passage of [14C]-caffeine, percentage of passage relative to an untreated control (Batch 2 of reconstructed epidermis, 0.2% AM, sample taken at 3 h): 82% | passage of [14C]-caffeine, percentage of passage relative to an untreated control (Batch 2 of reconstructed epidermis, 0.2% AM, sample taken at 4 h): 67 * % | passage of [14C]-caffeine, percentage of passage relative to an untreated control (Batch 2 of reconstructed epidermis, 0.2% AM, sample taken at 5 h): 75 * % | passage of [14C]-caffeine, percentage of passage relative to an untreated control (Batch 2 of reconstructed epidermis, 0.2% AM, sample taken at 6 h): 75 * % | passage of [14C]-caffeine, percentage of passage relative to an untreated control (Batch 2 of reconstructed epidermis, 0.2% AM, sample taken at 7 h): 84 * % | passage of [14C]-caffeine, percentage of passage relative to an untreated control (Batch 2 of reconstructed epidermis, 0.2% AM, sample taken at 8 h): 80 * % | passage of [14C]-caffeine, percentage of passage relative to an untreated control (Batch 2 of reconstructed epidermis, 0.2% AM, sample taken at 9 h): 88% | passage of [14C]-caffeine, percentage of passage relative to an untreated control (Batch 2 of reconstructed epidermis, 0.2% AM, sample taken at 10 h): 80 * % | passage of [14C]-caffeine, percentage of passage relative to an untreated control (Batch 2 of reconstructed epidermis, 0.2% AM, sample taken at 24 h): 95% | slowing down of caffeine passage compared with vitamin C (reference molecule) (result in words, comparison with vitamin C 200 μg/ml): greater | effect on the passage of the radiolabelled caffeine through the reconstructed epidermides (barrier function) (result in words, two batches of reconstructed epidermis): slows down the passage of the radiolabelled caffeine

Reference: US20080008674A1, “Use of C-glycoside derivative for improving the skin's barrier function” (L'OREAL, priority 2006, published 2008)
